These results are taken from PubChem BioAssay AID488867 (Broad Institute, 2010).

The source made the active and inactive calls.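 The calls were made as follows: active = a rising curve with AC50 no higher than ten times the top valid dose of that compound; inconclusive = flat curve between 30 and 70 percent, or failed fit; inactive = the rest.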

The first test can be described thus: protection from cytokine-driven beta-cell apoptosis, dose response, JC-1 fluorescence, INS-1E, dry powder, set 2 (AID 488867). The settings on record: INS-1E cytokine-induced apoptosis, JC-1 mitochondrial potential, 48 h; at 23.5 µM (top of the series).
`C[C@@H]1CN([C@@H](C)CO)C(=O)c2cccc(NC(=O)Nc3cccc4ccccc34)c2O[C@H]1CN(C)C(=O)Nc1ccccc1`: the protection from cytokine-induced depolarization is 2.8% (inactive).

For the molecule `COc1ccc(S(=O)(=O)N(C)C[C@@H]2Oc3c(NC(=O)C4CCOCC4)cccc3C(=O)N([C@@H](C)CO)C[C@H]2C)cc1`, the protection from cytokine-induced depolarization is 3.35% (inactive).

`COc1ccc(S(=O)(=O)N(C)C[C@@H]2Oc3c(cccc3N(C)C)C(=O)N([C@@H](C)CO)C[C@H]2C)cc1`: the protection from cytokine-induced depolarization was -4.35% (inactive).

The same test, now with this note: INS-1E cytokine-induced apoptosis, JC-1 mitochondrial potential, 48 h; at 26 µM (top of the series).
Regarding `C[C@@H]1CN([C@@H](C)CO)C(=O)c2cccc(NC(=O)Nc3cccc4ccccc34)c2O[C@H]1CN(C)C(=O)NC1CCCCC1`, the protection from cytokine-induced depolarization was -6.42% (inactive).

Take `Cc1ccc(S(=O)(=O)N(C)C[C@@H]2Oc3c(NC(=O)Nc4ccc(F)cc4)cccc3C(=O)N([C@@H](C)CO)C[C@H]2C)cc1`: the protection from cytokine-induced depolarization is 10.4% (inactive).

As for `N#Cc1ccc2cc(Br)c(C(F)(F)P(=O)(O)O)cc2c1`, the protection from cytokine-induced depolarization was -2.22% (inactive).

As for `C[C@H]1CN([C@@H](C)CO)C(=O)c2cccc(NC(=O)NC3CCCCC3)c2O[C@@H]1CN(C)S(C)(=O)=O`, the protection from cytokine-induced depolarization was -1.29% (inactive).

`COc1ccc(S(=O)(=O)N(C)C[C@@H]2Oc3c(NC(=O)c4cnccn4)cccc3C(=O)N([C@@H](C)CO)C[C@H]2C)cc1`: the protection from cytokine-induced depolarization is -9.35% (inactive).

Consider `C[C@@H]1CN([C@@H](C)CO)C(=O)c2cccc(NC(=O)Nc3cccc4ccccc34)c2O[C@H]1CN(C)S(C)(=O)=O`, for which the protection from cytokine-induced depolarization was 2.48% (inactive).

Consider `Cc1noc(C)c1NC(=O)N(C)C[C@@H]1Oc2c(NC(=O)Nc3cccc4ccccc34)cccc2C(=O)N([C@@H](C)CO)C[C@H]1C`, for which the protection from cytokine-induced depolarization was 12.1% (inactive).

As for `COc1cccc(S(=O)(=O)N(C)C[C@@H]2Oc3c(NC(=O)Nc4cccc5ccccc45)cccc3C(=O)N([C@@H](C)CO)C[C@H]2C)c1`, the protection from cytokine-induced depolarization was 5.29% (inactive).

On to `COc1ccc(S(=O)(=O)N(C)C[C@@H]2Oc3c(NC(=O)NC4CCCCC4)cccc3C(=O)N([C@@H](C)CO)C[C@H]2C)cc1`, for which the protection from cytokine-induced depolarization was 7.46% (inactive).

For the molecule `COc1ccc(S(=O)(=O)N(C)C[C@@H]2Oc3c(NC(=O)c4cccc5ccccc45)cccc3C(=O)N([C@@H](C)CO)C[C@H]2C)cc1`, the protection from cytokine-induced depolarization is 4.73% (inactive).

Turning to `C[C@@H]1CN([C@@H](C)CO)C(=O)c2cccc(NC(=O)Nc3cccc(Cl)c3Cl)c2O[C@H]1CN(C)S(=O)(=O)c1ccc2c(c1)OCCO2`, the protection from cytokine-induced depolarization is 8.05% (inactive).

For the molecule `C[C@@H]1CN([C@@H](C)CO)C(=O)c2cccc(NC(=O)Nc3cccc4ccccc34)c2O[C@H]1CN(C)C(=O)Nc1ccc2c(c1)OCO2`, the protection from cytokine-induced depolarization is -3.61% (inactive).

As to `C[C@@H]1CN([C@@H](C)CO)C(=O)c2cccc(NC(=O)Nc3cccc4ccccc34)c2O[C@H]1CN(C)C(=O)Nc1ccc(F)cc1`, the protection from cytokine-induced depolarization was 9.03% (inactive).

In the case of `COc1ccc(S(=O)(=O)N(C)C[C@@H]2Oc3c(NC(=O)Nc4cccc5ccccc45)cccc3C(=O)N([C@@H](C)CO)C[C@H]2C)cc1Cl`, the protection from cytokine-induced depolarization is -12% (inactive).

For `C[C@@H]1CN([C@@H](C)CO)C(=O)c2cccc(NC(=O)Nc3ccc(F)cc3)c2O[C@H]1CN(C)S(=O)(=O)c1ccc(Cl)cc1`, the protection from cytokine-induced depolarization is 8.02% (inactive).

As to `C[C@@H]1CN([C@@H](C)CO)C(=O)c2cccc(NS(=O)(=O)c3ccccc3)c2O[C@H]1CN(C)Cc1ccc(C(F)(F)F)cc1`, the protection from cytokine-induced depolarization was -2.49% (inactive).

Regarding `COc1ccc(S(=O)(=O)N(C)C[C@@H]2Oc3c(NC(=O)c4ccc(-c5nccs5)cc4)cccc3C(=O)N([C@@H](C)CO)C[C@H]2C)cc1`, the protection from cytokine-induced depolarization is -3.02% (inactive).

Regarding `C[C@@H]1CN([C@@H](C)CO)C(=O)c2cccc(NC(=O)Nc3ccc(F)cc3)c2O[C@H]1CN(C)S(=O)(=O)c1ccc(F)cc1`, the protection from cytokine-induced depolarization is 11.7% (inactive).

For the molecule `COc1ccc(S(=O)(=O)N(C)C[C@@H]2Oc3c(NC(=O)c4nc5ccccc5s4)cccc3C(=O)N([C@@H](C)CO)C[C@H]2C)cc1`, the protection from cytokine-induced depolarization was -8.58% (inactive).

Turning to `COc1ccccc1S(=O)(=O)N(C)C[C@@H]1Oc2c(NC(=O)Nc3cccc4ccccc34)cccc2C(=O)N([C@@H](C)CO)C[C@H]1C`, the protection from cytokine-induced depolarization is -3.43% (inactive).

Turning to `COc1ccc(S(=O)(=O)N(C)C[C@@H]2Oc3c(NS(=O)(=O)c4ccc(F)cc4)cccc3C(=O)N([C@@H](C)CO)C[C@H]2C)cc1`, the protection from cytokine-induced depolarization was -3.26% (inactive).

Take `C[C@@H]1CN([C@H](C)CO)C(=O)c2cccc(NC(=O)Nc3ccccc3)c2O[C@H]1CN(C)S(=O)(=O)c1ccc(F)cc1`: the protection from cytokine-induced depolarization was 4.78% (inactive).

With `COc1ccc(S(=O)(=O)N(C)C[C@@H]2Oc3c(NC(=O)Nc4cccc5ccccc45)cccc3C(=O)N([C@@H](C)CO)C[C@H]2C)cc1F`, the protection from cytokine-induced depolarization was -3.4% (inactive).

With `COc1ccc(S(=O)(=O)N(C)C[C@@H]2Oc3c(NS(C)(=O)=O)cccc3C(=O)N([C@@H](C)CO)C[C@H]2C)cc1`, the protection from cytokine-induced depolarization is -7.47% (inactive).

With `C[C@@H]1CN([C@@H](C)CO)C(=O)c2cccc(NC(=O)Nc3cccc4ccccc34)c2O[C@H]1CN(C)S(=O)(=O)c1ccc(F)cc1`, the protection from cytokine-induced depolarization was 4.49% (inactive).

For the molecule `C[C@@H]1CN([C@@H](C)CO)C(=O)c2cccc(NC(=O)Nc3cccc4ccccc34)c2O[C@H]1CN(C)S(=O)(=O)c1ccc2c(c1)oc(=O)n2C`, the protection from cytokine-induced depolarization was -5.34% (inactive).

For `COc1ccc(S(=O)(=O)N(C)C[C@@H]2Oc3c(NC(=O)Nc4ccc(C(F)(F)F)cc4)cccc3C(=O)N([C@@H](C)CO)C[C@H]2C)cc1`, the protection from cytokine-induced depolarization is -7.36% (inactive).

`COc1ccc(S(=O)(=O)N(C)C[C@@H]2Oc3c(NC(=O)Nc4cccc5ccccc45)cccc3C(=O)N([C@@H](C)CO)C[C@H]2C)c(OC)c1`: the protection from cytokine-induced depolarization is 11.3% (inactive).

Regarding `COc1ccc(S(=O)(=O)N(C)C[C@@H]2Oc3c(NC(=O)Nc4cccc5ccccc45)cccc3C(=O)N([C@@H](C)CO)C[C@H]2C)cc1C`, the protection from cytokine-induced depolarization is -8.34% (inactive).

As to `C[C@@H]1CN([C@@H](C)CO)C(=O)c2cccc(NC(=O)Nc3cccc4ccccc34)c2O[C@H]1CN(C)S(=O)(=O)c1cn(C)cn1`, the protection from cytokine-induced depolarization is 6.5% (inactive).

In the case of `COc1ccc(S(=O)(=O)N(C)C[C@@H]2Oc3ccc(NC(=O)Nc4cccc5ccccc45)cc3C(=O)N([C@@H](C)CO)C[C@H]2C)cc1`, the protection from cytokine-induced depolarization was -12% (inactive).

For `C[C@@H]1CN([C@@H](C)CO)C(=O)c2cccc(NC(=O)Nc3cccc4ccccc34)c2O[C@H]1CN(C)S(=O)(=O)c1ccc2c(c1)OCO2`, the protection from cytokine-induced depolarization is 32.4% (inactive).

As to `C[C@@H]1CN([C@@H](C)CO)C(=O)c2cccc(NC(=O)Nc3cccc4ccccc34)c2O[C@H]1CN(C)S(=O)(=O)c1ccccc1`, the protection from cytokine-induced depolarization is 8.02% (inactive).
